Experimental data taken from patent US20260365670A1, “EGFR INHIBITORS AND USES THEREOF” (DIZAL (JIANGSU) PHARMACEUTICAL CO., LTD., priority 2022, published 2026).
Read-outs that look alike come from different tables or passages of the source.

Tests used:
[1] = biological target: T1, EGFR[T790M/C797S/d746-750] (Homo sapiens, UniProt P00533, C797S/DEL746-750/T790M); experiment: Inhibition of EGFR[T790M/C797S/d746-750] biochemical enzymatic activity (HTRF); conditions: EGFR[T790M/C797S/d746-750], 1 mM ATP, 1 h at room temperature, read-out: IC50 @T790M - C797S - Del19
T1 construct: purchased Carna Bio
Procedure, shortened: (§1)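 Kinase activity is measured by HTRF detection of biotinylated TK substrate (1 μM) phosphorylation at 1 mM ATP. Incubation lasts 1 h at room temperature before an EDTA stop, and IC50 is fitted with a four-parameter logistic model.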

[2] = biological target: T2, EGFR wild type (Homo sapiens, UniProt P00533); experiment: Inhibition of EGFR wild type biochemical enzymatic activity (HTRF); conditions: EGFR wild type, 1 mM ATP, 1 h at room temperature, read-out: IC50 @WT
T2 construct: purchased Carna Bio
T2 sequence (P00533 25-1210): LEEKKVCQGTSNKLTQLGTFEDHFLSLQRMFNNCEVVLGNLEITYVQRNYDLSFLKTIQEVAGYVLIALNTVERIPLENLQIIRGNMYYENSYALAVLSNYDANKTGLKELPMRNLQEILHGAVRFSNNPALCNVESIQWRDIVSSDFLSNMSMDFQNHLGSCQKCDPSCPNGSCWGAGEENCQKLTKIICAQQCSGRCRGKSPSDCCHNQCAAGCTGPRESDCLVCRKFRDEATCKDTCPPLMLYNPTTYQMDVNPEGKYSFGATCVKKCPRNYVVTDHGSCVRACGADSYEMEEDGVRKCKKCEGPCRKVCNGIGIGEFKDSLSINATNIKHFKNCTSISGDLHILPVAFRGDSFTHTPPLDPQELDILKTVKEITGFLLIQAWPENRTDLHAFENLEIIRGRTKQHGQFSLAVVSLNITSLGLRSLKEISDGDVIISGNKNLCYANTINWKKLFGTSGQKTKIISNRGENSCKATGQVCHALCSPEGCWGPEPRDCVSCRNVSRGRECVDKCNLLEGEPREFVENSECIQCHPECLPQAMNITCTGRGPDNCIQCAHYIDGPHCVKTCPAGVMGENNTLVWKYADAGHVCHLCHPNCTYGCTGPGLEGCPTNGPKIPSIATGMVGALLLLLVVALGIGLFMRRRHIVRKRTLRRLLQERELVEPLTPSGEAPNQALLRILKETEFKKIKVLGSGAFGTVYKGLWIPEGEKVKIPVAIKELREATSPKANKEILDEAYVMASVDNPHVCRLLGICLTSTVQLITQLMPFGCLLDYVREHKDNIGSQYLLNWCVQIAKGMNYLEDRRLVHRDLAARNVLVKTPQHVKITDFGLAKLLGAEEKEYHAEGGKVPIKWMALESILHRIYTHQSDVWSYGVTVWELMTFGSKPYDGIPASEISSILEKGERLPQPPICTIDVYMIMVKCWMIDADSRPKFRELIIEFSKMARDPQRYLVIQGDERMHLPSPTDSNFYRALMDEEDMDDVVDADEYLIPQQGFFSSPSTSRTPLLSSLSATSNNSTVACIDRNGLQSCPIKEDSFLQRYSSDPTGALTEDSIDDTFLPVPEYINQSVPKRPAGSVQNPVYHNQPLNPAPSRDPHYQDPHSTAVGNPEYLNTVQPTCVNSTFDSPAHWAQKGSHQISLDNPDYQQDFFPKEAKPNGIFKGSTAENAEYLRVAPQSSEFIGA
Procedure, shortened: as §1

[3] = biological target: T3, EGFR L858R (Homo sapiens, UniProt P00533, L858R); experiment: Inhibition of EGFR L858R biochemical enzymatic activity (HTRF); conditions: 1 mM ATP, 1 h at room temperature, read-out: IC50 @L858R
T3 construct: purchased Carna Bio
Procedure, shortened: as §1

[4] = biological target: T4, EGFR (d746-750 C797S) (Homo sapiens, UniProt P00533, C797S/DEL746-750); experiment: Inhibition of EGFR (d746-750 C797S) biochemical enzymatic activity (HTRF); conditions: EGFR (d746-750 C797S), 1 mM ATP, 1 h at room temperature, read-out: IC50 @Del19-C797S
T4 construct: purchased signalchem
T4 sequence (P00533 with tags, fused parts or gaps DEL746-750/C797S limits assumed): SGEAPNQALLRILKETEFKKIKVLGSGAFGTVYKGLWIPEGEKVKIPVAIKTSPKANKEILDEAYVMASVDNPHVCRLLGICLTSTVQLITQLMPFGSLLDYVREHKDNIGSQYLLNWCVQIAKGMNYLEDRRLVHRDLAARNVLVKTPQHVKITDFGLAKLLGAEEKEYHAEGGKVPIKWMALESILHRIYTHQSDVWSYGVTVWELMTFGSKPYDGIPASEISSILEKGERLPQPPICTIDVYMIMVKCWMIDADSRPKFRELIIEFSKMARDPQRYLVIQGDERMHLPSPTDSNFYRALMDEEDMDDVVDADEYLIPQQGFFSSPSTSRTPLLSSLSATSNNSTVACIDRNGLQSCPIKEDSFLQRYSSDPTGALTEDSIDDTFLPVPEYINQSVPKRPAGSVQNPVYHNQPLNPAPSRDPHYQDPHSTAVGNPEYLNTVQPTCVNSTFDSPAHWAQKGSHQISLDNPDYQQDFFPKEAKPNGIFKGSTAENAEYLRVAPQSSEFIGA
Procedure, shortened: as §1

[5] = biological target: T5, EGFR L858R/T790M (Homo sapiens, UniProt P00533, L858R/T790M); experiment: Inhibition of EGFR L858R/T790M biochemical enzymatic activity (HTRF); conditions: EGFR L858R/T790M, 1 mM ATP, 1 h at room temperature, read-out: IC50 @L858R-T790M
T5 construct: purchased Carna Bio
T5 sequence (P00533 25-1210 T790M/L858R): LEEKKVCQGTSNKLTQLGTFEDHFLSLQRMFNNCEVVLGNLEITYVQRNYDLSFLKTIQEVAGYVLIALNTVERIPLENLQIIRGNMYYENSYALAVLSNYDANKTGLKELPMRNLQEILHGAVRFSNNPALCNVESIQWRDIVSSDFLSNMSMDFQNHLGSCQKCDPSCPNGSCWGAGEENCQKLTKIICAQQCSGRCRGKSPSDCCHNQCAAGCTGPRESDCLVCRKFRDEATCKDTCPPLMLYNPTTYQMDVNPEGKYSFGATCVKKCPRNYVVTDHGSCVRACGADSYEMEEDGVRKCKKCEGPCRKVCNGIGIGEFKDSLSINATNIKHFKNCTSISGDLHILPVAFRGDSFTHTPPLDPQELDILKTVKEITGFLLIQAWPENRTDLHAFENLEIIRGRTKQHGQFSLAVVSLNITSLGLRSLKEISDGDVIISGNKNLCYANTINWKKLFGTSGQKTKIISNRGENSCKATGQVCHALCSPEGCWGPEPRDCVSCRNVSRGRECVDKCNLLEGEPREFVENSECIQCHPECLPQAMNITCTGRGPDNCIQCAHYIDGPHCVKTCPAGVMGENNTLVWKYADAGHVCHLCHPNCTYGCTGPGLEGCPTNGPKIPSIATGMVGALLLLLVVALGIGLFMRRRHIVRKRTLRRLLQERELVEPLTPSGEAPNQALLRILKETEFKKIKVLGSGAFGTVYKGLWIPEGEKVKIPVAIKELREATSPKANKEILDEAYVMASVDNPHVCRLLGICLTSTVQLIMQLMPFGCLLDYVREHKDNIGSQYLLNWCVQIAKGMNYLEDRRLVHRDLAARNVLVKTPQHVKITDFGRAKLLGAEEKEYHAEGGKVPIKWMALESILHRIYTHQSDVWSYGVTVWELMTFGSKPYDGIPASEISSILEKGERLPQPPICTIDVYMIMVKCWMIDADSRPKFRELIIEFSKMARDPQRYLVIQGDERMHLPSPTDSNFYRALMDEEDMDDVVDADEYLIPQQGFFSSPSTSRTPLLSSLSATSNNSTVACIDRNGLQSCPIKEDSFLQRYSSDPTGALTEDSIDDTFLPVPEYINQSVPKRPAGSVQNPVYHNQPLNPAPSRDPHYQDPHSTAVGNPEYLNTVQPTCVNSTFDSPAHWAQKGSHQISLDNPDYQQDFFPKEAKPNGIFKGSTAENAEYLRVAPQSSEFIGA
Procedure, shortened: as §1

[6] = test system: Ba/F3 cells expressing EGFR mutations; experiment: Cell proliferation assay, Ba/F3 cells expressing EGFR mutations (CellTiter-Glo, 72 hours); type: cell-based; conditions: Mus musculus, BaF3, 72 h
Procedure, shortened: (§2)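 GI50 is the concentration giving 50% proliferation inhibition. Growth for this was normalised to a baseline viability reading taken when compound was added, and to DMSO wells. PC-9 (500 cells/well) and mutant-EGFR Ba/F3 (5000 cells/well) are treated after overnight seeding in RPMI1640-based medium.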

[7] = test system: A-431; experiment: Cell proliferation assay, A-431 cells (GI50, Table 6); type: cell-based; conditions: Homo sapiens, A-431, A-431 cells
[8] = biological target: T6, EGFR Exon19Del (Homo sapiens, UniProt P00533, DEL746-750); experiment: Inhibition of EGFR Exon19Del biochemical enzymatic activity (HTRF); conditions: EGFR Exon19Del, 1 mM ATP, 1 h at room temperature, read-out: IC50 @Del19
T6 construct: purchased Carna Bio
Procedure, shortened: as §1

[9] = biological target: T7, EGFR Exon19Del/T790M (Homo sapiens, UniProt P00533, DEL746-750/T790M); experiment: Inhibition of EGFR Exon19Del/T790M biochemical enzymatic activity (HTRF); conditions: EGFR Exon19Del/T790M, 1 mM ATP, 1 h at room temperature, read-out: IC50 @Del19-T790M
T7 construct: purchased Carna Bio
T7 sequence (P00533 with tags, fused parts or gaps DEL746-750/T790M limits assumed): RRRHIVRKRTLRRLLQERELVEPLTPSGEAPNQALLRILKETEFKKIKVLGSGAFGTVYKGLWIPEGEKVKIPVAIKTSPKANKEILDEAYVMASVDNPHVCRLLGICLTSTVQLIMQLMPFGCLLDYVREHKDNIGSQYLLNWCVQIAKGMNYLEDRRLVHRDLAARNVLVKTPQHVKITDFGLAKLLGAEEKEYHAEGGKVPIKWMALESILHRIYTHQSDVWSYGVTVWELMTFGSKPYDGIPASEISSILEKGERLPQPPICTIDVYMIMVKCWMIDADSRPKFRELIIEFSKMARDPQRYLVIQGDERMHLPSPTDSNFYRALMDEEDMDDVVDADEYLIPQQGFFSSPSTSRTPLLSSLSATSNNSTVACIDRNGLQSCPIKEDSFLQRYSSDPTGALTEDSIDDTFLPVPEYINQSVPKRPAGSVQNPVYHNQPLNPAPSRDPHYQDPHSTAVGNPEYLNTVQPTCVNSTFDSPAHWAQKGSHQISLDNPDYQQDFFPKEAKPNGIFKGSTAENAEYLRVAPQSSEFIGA
Procedure, shortened: as §1

[10] = test system: PC-9; experiment: Cell proliferation assay, PC-9 cells (CellTiter-Glo, 72 hours); type: cell-based; conditions: Homo sapiens, PC-9, 72 h, PC9 cells, read-out: GI50 PC9
Procedure, shortened: as §2

[11] = biological target: T8, EGFR (C797S L858R) (Homo sapiens, UniProt P00533, C797S/L858R); experiment: Inhibition of EGFR (C797S L858R) biochemical enzymatic activity (HTRF); conditions: EGFR (C797S L858R), 1 mM ATP, 1 h at room temperature, read-out: IC50 @L858-C797S
T8 construct: purchased signalchem
Procedure, shortened: as §1

[12] = biological target: T9, EGFR[T790M/C797S/L858R] (Homo sapiens, UniProt P00533, C797S/L858R/T790M); experiment: Inhibition of EGFR[T790M/C797S/L858R] biochemical enzymatic activity (HTRF); conditions: EGFR[T790M/C797S/L858R], 1 mM ATP, 1 h at room temperature, read-out: IC50 @T790M- C797S - L858R
T9 construct: purchased Carna Bio
T9 sequence (P00533 25-1210 T790M/C797S/L858R): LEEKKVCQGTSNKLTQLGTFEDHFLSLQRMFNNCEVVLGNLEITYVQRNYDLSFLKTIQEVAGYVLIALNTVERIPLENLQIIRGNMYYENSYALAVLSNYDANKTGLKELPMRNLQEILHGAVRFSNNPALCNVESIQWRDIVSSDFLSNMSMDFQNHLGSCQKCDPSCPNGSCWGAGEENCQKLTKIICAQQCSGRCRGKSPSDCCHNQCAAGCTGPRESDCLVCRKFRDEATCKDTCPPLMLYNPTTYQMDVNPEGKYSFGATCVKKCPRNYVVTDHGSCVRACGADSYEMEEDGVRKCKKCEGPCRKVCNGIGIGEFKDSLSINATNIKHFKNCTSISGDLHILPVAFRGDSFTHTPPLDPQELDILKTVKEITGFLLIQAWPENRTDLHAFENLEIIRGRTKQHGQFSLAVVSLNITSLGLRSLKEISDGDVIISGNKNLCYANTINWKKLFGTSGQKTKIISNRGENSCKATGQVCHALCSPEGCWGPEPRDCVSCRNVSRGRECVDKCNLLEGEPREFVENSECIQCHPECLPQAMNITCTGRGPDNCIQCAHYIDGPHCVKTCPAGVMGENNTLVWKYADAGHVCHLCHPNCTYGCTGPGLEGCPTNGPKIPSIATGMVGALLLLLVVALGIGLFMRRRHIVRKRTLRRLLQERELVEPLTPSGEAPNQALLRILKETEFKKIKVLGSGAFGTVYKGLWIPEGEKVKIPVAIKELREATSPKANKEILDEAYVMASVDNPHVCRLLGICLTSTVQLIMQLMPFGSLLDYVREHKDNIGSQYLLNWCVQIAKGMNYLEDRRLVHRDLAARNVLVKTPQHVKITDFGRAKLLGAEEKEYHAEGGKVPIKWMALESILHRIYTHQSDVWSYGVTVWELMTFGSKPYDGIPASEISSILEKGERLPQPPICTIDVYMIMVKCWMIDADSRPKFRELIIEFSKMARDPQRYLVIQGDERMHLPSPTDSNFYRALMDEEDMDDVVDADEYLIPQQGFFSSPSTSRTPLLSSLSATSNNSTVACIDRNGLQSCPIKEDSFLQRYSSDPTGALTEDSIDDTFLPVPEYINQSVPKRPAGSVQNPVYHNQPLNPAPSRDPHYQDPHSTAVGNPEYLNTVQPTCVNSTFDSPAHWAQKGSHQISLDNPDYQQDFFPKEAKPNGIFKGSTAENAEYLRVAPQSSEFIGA
Procedure, shortened: as §1

[13] = BaF3 cells, EGFR DEL19 - C797S, read-out: GI50 DEL19 - C797S/BaF3
[14] = BaF3 cells, EGFR DEL19 - T790-C797S, read-out: GI50 DEL19 - T790-C797S/BaF3
[15] = BaF3 cells, EGFR L858R - C797S, read-out: GI50 L858R - C797S/BaF3
[16] = BaF3 cells, EGFR L858R - T790-C797S, read-out: GI50 L858R - T790-C797S/BaF3
[17] = BaF3 cells, EGFR L858R - T790M, read-out: GI50 L858R - T790M/BaF3
[18] = BaF3 cells, EGFR L858R, read-out: GI50 L858R/BaF3
[19] = EGFR DEL19 - T790M, read-out: GI50 DEL19 - T790M

Row | Compound | IC50 [1] [nM] | IC50 [2] [nM] | IC50 [3] [nM] | IC50 [4] [nM] | IC50 [5] [nM] | GI50 [6, 13] [nM] | GI50 [6, 14] [nM] | GI50 [6, 15] [nM] | GI50 [6, 16] [nM] | GI50 [6, 17] [nM] | GI50 [6, 18] [nM] | GI50 [6, 19] [nM] | GI50 [7] [nM] | IC50 [8] [nM] | IC50 [9] [nM] | GI50 [10] [nM] | IC50 [11] [nM] | IC50 [12] [nM]
1 | Cc1cc2cc(n1)-c1cnn(C)c1OCCN1CC3CCC(CC3)(C1)n1c(nc3ccc(N(C)CCCN(C)C)cc31)NC2=O [Example B33] | 3 | > 5000 | 214 | 22 | 20 | 10 | 3 | 69 | 7 | 13 | 62 | 4 | 3740 | 28 | 9.9 | 75 | 131 | 6.2
2 | Cc1cc2cc(n1)-c1cnn(C)c1OCCN1CC3CCC(CC3)(C1)n1c(nc3ccc(N4CC5CN(C)CC5C4)cc31)NC2=O (stereo not drawn) [Example B34] | 5.4 | > 5000 | 421 | 20 | 16 | 11 | 4 | 83 | 9 | 17 | 64 | 4 | 4520 | 39 | 12 | 86 | 203 | 8.4
3 | Cc1cc2cc(n1)-c1cnn(C)c1OCCN1CC3CCC(CC3)(C1)n1c(nc3ccc(N4CC5CCN(C)C5C4)cc31)NC2=O (stereo not drawn) [Example B35] | 6 | > 5000 | 378 | 14 | 13 | 10 | 3 | 108 | 7 | 20 | 62 | 3 | 6630 | 30 | 9 | 121 | 185 | 5
4 | Cc1cc2cc(n1)-c1cnn(C)c1OCCN1CC3CCC(CC3)(C1)n1c(nc3ccc(N4CCN(C5CC5)CC4)cc31)NC2=O [Example B36] | 3.7 | > 5000 | 734 | 10 | 7.6 | 27 | 8 | 234 | 15 | 29 | 200 | 10 | 3420 | 24 | 5.8 | 186 | 159 | 2.9
5 | Cc1cc2cc(n1)-c1cnn(C)c1OCCN1CC3CCC(CC3)(C1)n1c(nc3ccc(N4CCC5(CN(C)C5)C4)cc31)NC2=O [Example B37] | 3.9 | > 5000 | 194 | 13 | 13 | 12 | 5 | 73 | 9 | 28 | 74 | 5 | 5040 | 19 | 9 | 106 | 99 | 5.6
6 | Cc1cc2cc(n1)-c1cnn(C)c1OCCN1CC3CCC(CC3)(C1)n1c(nc3ccc(N4CCN(C(C)C)CC4)cc31)NC2=O [Example B39] | 3.3 | > 5000 | 282 | 9.4 | 7.7 | 24 | 8 | 101 | 4 | 18 | 167 | 7 | 7730 | 20 | 6.6 | 178 | 126 | 4.2
